Data set [1] in a line: Parallel artificial membrane permeability assay (PAMPA). The following applies: for PAMPA_R1 / PAMPA_R3: PAMPA Papp; for PAMPA_R1: replicate 1; for PAMPA_R3: replicate 3. Background: In PAMPA a lipid-coated filter parts donor from acceptor wells.
A short description of data set [2]: Caco-2 permeability assay (apical to basolateral). The data set is classed as in vitro ADME, human. The method in brief: (§1)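 Caco-2 monolayers were grown on 0.4 μm Transwell inserts for 6 days. Peptides were applied apically at 50 μM with HBSS basolaterally and incubated 90 min at 37°C with shaking.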
(Passage across Caco-2 layers is used to estimate intestinal permeability.)

For the next data set, the system named is Caco-2 cells. The data set can be described thus: Caco-2 permeability assay (apical to basolateral). The data set is classed as in vitro ADME, human. The following applies: Caco-2. The method, boiled down: as §1
A short description of a further data set: in vitro. The following applies: PAMPA, PAMPA_Papp_Avg.
For data set [3] the following is noted: PAMPA, apparent permeability (Papp) in PAMPA.
For data set [4] the following is noted: PAMPA.
The mark [5] stands for this setting: BQL: No significant peak detected for the peptide in the acceptor wells.

Consider 3 compounds from article PMC9490236, “Accurate de novo design of membrane-traversing macrocycles” (Cell, 2022).

Like-named read-outs stand apart in the source and are kept apart here. Where a SMILES comes first, the peptide text is derived from it. [ ]: non-standard residue; d: D form. NMeF = CN[C@@H](Cc1ccccc1)C(=O)O; NMeL = CN[C@@H](CC(C)C)C(=O)O; dNMeL = CN[C@H](CC(C)C)C(=O)O; dNMeV = CN[C@@H](C(=O)O)C(C)C; dNMeA = CN[C@H](C)C(=O)O

In general, Papp refers to a coefficient for how fast a substance crosses the barrier. In data set [1] (PAMPA), `CC[C@@H](C)[C@H]1NC(=O)[C@@H](CC(C)C)N(C)C(=O)[C@@H]2CCCN2C(=O)[C@H](C(C)C)NC(=O)[C@@H](C)N(C)C(=O)[C@@H]2CCCN2C(=O)[C@@H](CC(C)C)NC(=O)[C@@H](C(C)C)N(C)C(=O)[C@@H]2CCCN2C(=O)[C@H](C)NC(=O)[C@H](C(C)C)NC(=O)[C@@H]2CCCN2C1=O` [Design D12.5, VAL PRO *DLEU DILE PRO VAL ALA PRO *DVAL DLEU PRO *DALA] (cyclo(AP[dNMeV][dL]P[dNMeA]VP[dNMeL][dI]PV)) came in with an apparent permeability coefficient (Papp) of 0.1 ×10⁻⁶ cm/s. Besides, in data set [1] (setting [5]), the PAMPA_R1 is on record as 1.24E-07 and the PAMPA_R3 stood at 1.52E-07.
The term Papp A→B denotes how fast a substance crosses the layer from the apical side. High values mean fast passage, low ones slow passage. As to `CC[C@H](C)[C@@H]1NC(=O)[C@H](Cc2ccccc2)N(C)C(=O)[C@H]2CCCN2C(=O)[C@H]([C@@H](C)CC)NC(=O)[C@@H](C)N(C)C(=O)[C@@H](C)NC(=O)[C@@H]2CCCN2C(=O)[C@H]2CCCN2C(=O)[C@H](CC(C)C)NC(=O)[C@@H](CC(C)C)NC(=O)[C@H](CC(C)C)NC(=O)[C@H]2CCCN2C1=O` [Design D12.6, DPRO *PHE ILE DPRO LEU DLEU LEU DPRO PRO DALA *DALA ILE] (cyclo([dA][dNMeA]I[dP][NMeF]I[dP]L[dL]L[dP]P)), in data set [2] (Caco-2, Caco_Papp_Average), the Papp A→B came out at 2.84 ×10⁻⁶ cm/s. The Papp at 90 min, 50 µM in data set [2] (human, Caco-2) came to 2.84 ×10⁻⁶ cm/s. In the data set on Caco-2 cells, this compound showed a Caco_R1 of 2.06 and a Caco_R3 of 4.18. Also, the Papp in “in vitro” amounted to 1.47 ×10⁻⁶ cm/s. In addition, the apparent permeability coefficient (Papp) in data set [3] was 1.47 ×10⁻⁶ cm/s. In data set [4], this compound returned a PAMPA_R1 of 2.43E-06 and a PAMPA_R3 of 1.22E-06.
`CC[C@@H](C)[C@H]1NC(=O)[C@@H](C)N(C)C(=O)[C@H](CC(C)C)NC(=O)[C@@H](CC(C)C)NC(=O)[C@H]2CCCN2C(=O)[C@H](CC(C)C)N(C)C(=O)[C@@H](C(C)C)NC(=O)[C@@H](CC(C)C)N(C)C(=O)[C@H](C(C)C)NC(=O)[C@@H](C(C)C)NC(=O)[C@@H]2CCCN2C(=O)[C@H]2CCCN2C1=O` [Design D12.10, *LEU DPRO DLEU LEU *DALA DILE DPRO PRO DVAL VAL *DLEU DVAL] (cyclo([dV]V[dNMeL][dV][NMeL][dP][dL]L[dNMeA][dI][dP]P)): in data set [1] (setting [5]), the PAMPA_R1 result is given as “BQL” and the PAMPA_R3 entry is “BQL”. The PAMPA_Papp_Avg result in data set [1] (average of 3 replicates, BQL: No significant peak detected for the peptide in the acceptor wells) was “BQL”.
